This is an account of results in US6130215A, “Piperazinylalkylthiopyrimidine derivatives, pharmaceutical compositions containing the same and a process for the preparation of the novel compounds” (Egis Gyoyszergyar RT, priority 1995, dated 2000).

Each structure is given as a SMILES string. A value given as a limit tells only on which side of the number the result lay.

One assay has as its target T1, 5-HT2C receptor (Sus scrofa, UniProt K7GSR7).
T1 construct: pig brain choroid plexus membrane preparation; from tissue; host or cells: pig brain choroid plexus membrane preparation
T1 sequence (K7GSR7 1-457): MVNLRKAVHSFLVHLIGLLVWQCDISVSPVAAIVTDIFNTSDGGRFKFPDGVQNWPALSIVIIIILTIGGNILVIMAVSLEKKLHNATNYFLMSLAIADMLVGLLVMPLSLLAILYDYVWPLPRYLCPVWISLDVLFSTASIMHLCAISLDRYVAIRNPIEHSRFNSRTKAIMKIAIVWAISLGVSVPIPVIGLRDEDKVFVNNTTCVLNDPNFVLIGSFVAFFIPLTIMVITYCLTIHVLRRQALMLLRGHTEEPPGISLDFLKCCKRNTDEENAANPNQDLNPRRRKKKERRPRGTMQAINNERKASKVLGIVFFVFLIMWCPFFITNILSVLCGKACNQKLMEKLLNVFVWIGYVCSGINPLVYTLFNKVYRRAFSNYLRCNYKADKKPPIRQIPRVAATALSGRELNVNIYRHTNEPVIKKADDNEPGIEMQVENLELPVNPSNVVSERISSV
As to the kind of experiment: 5-HT2C receptor binding ([3H]mesulergine, pig brain choroid plexus membrane preparation). The settings on record: tritiated mesulergine, 37° C., read-out: Inhibition of receptor binding of the radioactive ligand, 5-HT2C (Ki). The protocol: (§1) 5-HT2A and 5-HT2C receptor binding was measured according to the methods described by Leysen et al. /Mol. Pharmacol., 21, 301 (1981)/ and Pazos et al. /Eur. J. Pharmacol., 106, 539 (1985)/, respectively. 5-HT2A receptor binding was measured in rat brain frontal cortex membrane preparation using tritiated ketanserine /3-/2-(4-fluorobenzoyl)- -1-piperidinyl/ethyl-2,4-(1H,3H)-quinazoline-dione/(60-90 Ci/mmole) as ligand. 5-HT2C receptor binding was measured in pig brain choroid plexus membrane preparation using tritiated mesulergine /N'-/(8)-1,6-dimethyl-ergoline-8-yl/-N,N-dimethylsulfamide (70-85 Ci/mmole) as the ligand. Non-specific binding to 5-HT2A and 5-HT2C receptors were determined in the presence of 10 micro M cyproheptadine/4-(5H-dibenzo/a,d/cycloheptene-5-ylidene)-1-methylpiperidine/ and 1 micro M mianserine/1,2,3,4,10,14b-hexahydro-2-methyldibenzo-/c,f/pyrazino/1,2-a/azepine/, respectively. The final incubation volumes were 250 and 1000 microlitres. Samples were incubated for 15 and 30 minutes at 37° C. Incubation was stopped by adding 9 ml of ice-cold 50 mM tris(hydroxymethyl)-aminomethane hydrochloride (pH=7.7) to the reaction mixture. The samples were rapidly filtered through Whatman GF/B glass fiber filters using reduced pressure. Before use, the filters were soaked in a 0.05% poly-ethyleneimine solution for 2 to 3 hours. Radioactivity of the filters was determined by a scintillation spectrometer.

For assay [1], the target named is T2, 5-HT2A receptor (Rattus norvegicus, UniProt P14842).
T2 construct: rat brain frontal cortex membrane preparation; from tissue; host or cells: rat brain frontal cortex membrane preparation
T2 sequence (P14842 whole entry): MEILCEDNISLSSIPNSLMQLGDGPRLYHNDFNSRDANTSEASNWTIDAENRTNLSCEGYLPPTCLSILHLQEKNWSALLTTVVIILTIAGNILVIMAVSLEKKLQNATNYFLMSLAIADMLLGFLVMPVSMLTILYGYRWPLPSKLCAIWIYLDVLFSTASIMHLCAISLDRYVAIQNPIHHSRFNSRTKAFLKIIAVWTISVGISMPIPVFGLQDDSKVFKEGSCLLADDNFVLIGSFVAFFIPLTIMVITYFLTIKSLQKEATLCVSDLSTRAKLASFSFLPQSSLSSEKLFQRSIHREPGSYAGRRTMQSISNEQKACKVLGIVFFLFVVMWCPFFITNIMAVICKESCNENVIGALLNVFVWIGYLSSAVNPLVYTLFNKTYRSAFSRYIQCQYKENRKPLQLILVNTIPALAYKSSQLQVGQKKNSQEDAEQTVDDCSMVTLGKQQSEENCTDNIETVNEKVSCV
As to the kind of experiment: 5-HT2A receptor binding ([3H]ketanserine, rat brain frontal cortex membrane preparation). The conditions noted are these: tritiated ketanserine, 37° C., read-out: Inhibition of receptor binding of the radioactive ligand, 5-HT2A (Ki). The protocol: as §1

The target of assay [2] is T3, 5-HT2A receptor (Oryctolagus cuniculus, UniProt G1SYA7).
T3 construct: The thoracic aorta segment after the aortic arch was removed; from tissue; host or cells: rabbit thoracic aorta, helical strips
T3 sequence (G1SYA7 1-469): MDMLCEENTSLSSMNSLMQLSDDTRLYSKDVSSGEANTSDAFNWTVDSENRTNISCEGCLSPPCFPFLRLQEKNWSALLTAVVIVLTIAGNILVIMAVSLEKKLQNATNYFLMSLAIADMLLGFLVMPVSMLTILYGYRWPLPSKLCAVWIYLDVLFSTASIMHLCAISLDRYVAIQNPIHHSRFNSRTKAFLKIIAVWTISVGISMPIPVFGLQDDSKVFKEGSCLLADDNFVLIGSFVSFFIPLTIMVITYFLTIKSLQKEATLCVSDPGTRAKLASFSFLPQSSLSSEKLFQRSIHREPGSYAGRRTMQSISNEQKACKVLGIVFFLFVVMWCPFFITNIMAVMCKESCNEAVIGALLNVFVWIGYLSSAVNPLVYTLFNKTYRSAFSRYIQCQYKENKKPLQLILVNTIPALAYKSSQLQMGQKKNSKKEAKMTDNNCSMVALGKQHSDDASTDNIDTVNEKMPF
Kind of assay: 5-HT2A receptor antagonistic effect: inhibition of 5-HT-evoked contractions on isolated rabbit aortic strips. The format is cell-based, rabbit (New-Zealand, male, white). The conditions noted are these: 5-HT 10^-6 M; phenoxybenzamine 10^-8 M; tranylcypramine 10^-7 M; 10 minutes incubation. The protocol: New-Zealand, male, white rabbits weighing 2.0 to 2.5 kg were killed by a blow on the head. The thoracic aorta segment after the aortic arch was removed and placed into a Krebs' solution (NaCl 118 mM, KCl 4.6 mM, NaHCO3 25 mM, glucose 10.5 mM, […] 1 mM, KH2PO4 1 mM, CaCl2 2.6 mM). The aorta was carefully cleaned from fat and connective tissue, and was cut into 3 mm wide and 30 mm long helical strips. Four strips were obtained from each rabbit. The strips were equilibrated at 37° C. for 60 minutes in an organ chamber filled with Krebs' solution. The strips were also oxygenated by bubbling carbogen gas (5% of carbon dioxide and 95% of oxygen) through the solution. The strips were stretched by 1 g tension.
The contractions were measured by a Hugo Sachs K-30 type strain gauge, and were registered on a Multicorder type polygraph. During the last 40 minutes of the equilibration, the MAO enzym inhibitor tranylcypramine (10^-7 M) /chemical name: (±)-trans-2-phenylcyclopropylamine/ was also added to the bath.
Any alpha-adrenergic effects of the test compounds were eliminated by 10^-8 M of phenoxybenzamine /N-(2-chloroethyl)-N-(1-methyl-2-phenoxyethyl)benzylamine/ /Clancy et al., J. Pharm. Exp. Ther., 233, 761 (1985). Testing of the serotonergic antagonistic effect was started at the 90th minute of incubation. The stability and reproducibility of the contractile response of the aortic strips to serotonin was tested by two consecutive application and wash-out procedures of 10^-6 M concentration of 5-HT, 40 minutes apart. […] 30 minutes after the second testing, a preset concentration of the test compound was added to the bath, and, after a 10 minutes incubation time, the response to 10^-6 M of 5-HT was determined in the presence of the compound to be tested.
Two different concentrations of a given compound were tested on each aortic strip by the above method. Reproducibility of the control 5-HT-evoked response was checked between testing the two concentrations of the compound.
IC50 was calculated by nonlinear curve fitting of the inhibitory effect of increasing concentrations of the test compound.

Usually Ki stands for a dissociation constant, usually derived from enzyme kinetics or from competition with a known ligand. As a reminder, the IC50 is the concentration that gives 50% inhibition. In the case of `Nc1cc(N)nc(SCCN2CCN(Cc3ccc(F)cc3)CC2)n1` [Example 3, 2-[2-/4-(4-Fluorobenzyl)-1-piperazinyl/-ethylthio]-7-4,6-diaminopyrimidine], the inhibition constant Ki at 5-HT2C receptor is greater than 100 nM; at 5-HT2A receptor [1], 58 nM. This molecule also showed an IC50 against 5-HT2A receptor [2] of 960 nM.
As to `Nc1cc(N)nc(SCCN2CCN(Cc3ccccc3Cl)CC2)n1` [Example 5, 2-[2-/4-(2-Chlorobenzyl)-1-piperazinyl/-ethylthio]-4,6-diaminopyrimidine], the values for the Ki at 5-HT2C receptor and on 5-HT2A receptor [1] were 67 nM and 16 nM, respectively. The same molecule registered a concentration for half-maximal inhibition (IC50) at 5-HT2A receptor [2] of 250 nM.
As to `COc1cccc(CN2CCN(CCSc3nc(N)c(Cc4ccccc4)c(N)n3)CC2)c1` [Example 12, 2-[2-/4-(3-Methdxybenzyl)-1-piperazinyl/-ethylthio]-4,6-diamino-5-benzylpyrimidine], the figures for the inhibitory constant (Ki) on 5-HT2C receptor and at 5-HT2A receptor [1] were 47 nM and greater than 100 nM, respectively.
In the case of `Nc1nc(SCCN2CCN(Cc3ccccc3Cl)CC2)nc(N)c1Cc1ccccc1` [Example 13, 2-[2-/4-(2-Chlorobenzyl)-1-piperazinyl/-ethylthio]-4,6-diamino-5-benzylpyrimidine], the Ki at 5-HT2C receptor was found to be 12 nM; on 5-HT2A receptor [1], 20 nM. This molecule registered an IC50 at 5-HT2A receptor [2] of 120 nM.
`Nc1nc(SCCN2CCN(Cc3ccc([N+](=O)[O-])cc3)CC2)nc(N)c1Cc1ccccc1` [Example 14, 2-[2-/4-(4-Nitrobenzyl)-1-piperazinyl/-ethylthio]-4,6-diamino-5-benzylpyrimidine]: the values for the Ki on 5-HT2C receptor and on 5-HT2A receptor [1] were greater than 100 nM and 78 nM, respectively. Also, on 5-HT2A receptor [2], the IC50 was found to be 6000 nM.
Consider `Nc1nc(SCCN2CCN(Cc3ccc([N+](=O)[O-])cc3)CC2)nc(N)c1Cc1ccccc1O` [Example 19, 2-[2-/4-(4-Nitrobenzyl)-1-piperazinyl/-ethylthio]-4,6-diamino-5-(2-hydroxybenzyl)-pyrimidine], for which the inhibition constant Ki at 5-HT2C receptor is greater than 100 nM; on 5-HT2A receptor [1] it was 48 nM.
As for `Nc1nc(SCCN2CCN(Cc3cccc(C(F)(F)F)c3)CC2)nc(N)c1Cc1ccc(F)cc1` [Example 21, 2-[2-/4-(3-Trifluoromethylbenzyl)-1-piperazinyl/ethylthio]4,6-diamino-5-(4-fluorobenzyl)pyrimidine], the inhibition constant (Ki) at 5-HT2C receptor was 39 nM; at 5-HT2A receptor [1], greater than 100 nM.
`COc1ccc(Cc2c(N)nc(SCCN3CCN(Cc4ccc(C)cc4)CC3)nc2N)cc1` [Example 23, 2-[2-/4-(4-Methylbenzyl)-1-piperazinyl/-ethylthio]-4,6-diamino-5-(4-methoxybenzyl)-pyrimidine]: the figures for the Ki on 5-HT2C receptor and on 5-HT2A receptor [1] were greater than 100 nM and 20 nM, respectively. The molecule further returned an IC50 against 5-HT2A receptor [2] of 670 nM.
For `COc1ccc(Cc2c(N)nc(SCCN3CCN(Cc4ccccc4C)CC3)nc2N)cc1` [Example 24, 2-[2-/4-(2-Methylbenzyl)-1-piperazinyl/-ethylthio]-4,6-diamino-5-(4-methoxybenzyl)-pyrimidine] the same measures were 22 nM, 18 nM and 240 nM.
With `COc1ccc(Cc2c(N)nc(SCCN3CCN(Cc4ccccc4C#N)CC3)nc2N)cc1` [Example 27, 2-[2-/4-(2-Cyanobenzyl)-1-piperazinyl/-ethylthio]-4,6-diamino-5-(4-methoxybenzyl)-pyrimidine], half-maximal inhibition against 5-HT2A receptor [2] (IC50) required 900 nM.
Turning to `COc1ccc(Cc2c(N)nc(SCCN3CCN(Cc4cccc(OC)c4)CC3)nc2N)cc1` [Example 28, 2-[2-/4-(3-Methoxybenzyl)-1-piperazinyl/-ethylthio]-4,6-diamino-5-(4-methoxybenzyl)-pyrimidine], the inhibition constant (Ki) on 5-HT2C receptor was 50 nM; at 5-HT2A receptor [1], greater than 100 nM.
Turning to `COc1ccccc1Cc1c(N)nc(SCCN2CCN(Cc3ccc([N+](=O)[O-])cc3)CC2)nc1N` [Example 34, 2-[2-/4-(4-Nitrobenzyl)-1-piperazinyl/-ethylthio]-4,6-diamino-5-(2-methoxy-benzyl)pyrimidine], the inhibitory constant (Ki) on 5-HT2C receptor was greater than 100 nM; on 5-HT2A receptor [1] it was 71 nM.
Taken in the same sequence, the figures for `COc1ccc(Cc2c(N)nc(SCCN3CCN(Cc4cccc(C(F)(F)F)c4)CC3)nc2N)cc1` [Example 35, 2-[2-/4-(3-Trifluoromethylbenzyl)-1-piperazinyl/-ethyl-thio]-4,6-diamino-5-(4-methoxybenzyl)pyrimidine] were 69 nM and greater than 100 nM.
Regarding `COc1ccccc1Cc1c(N)nc(SCCN2CCN(Cc3cccc(C(F)(F)F)c3)CC2)nc1N` [Example 36, 2-[2-/4-(3-Trifluoromethylbenzyl)-1-piperazinyl/ethylthio]-4,6-diamino-5-(2-methoxybenzyl)pyrimidine], the Ki was 18 nM at 5-HT2C receptor and greater than 100 nM at 5-HT2A receptor [1].
Consider `Cc1ccccc1CN1CCN(CCSc2nc(N)c(Cc3ccccc3Cl)c(N)n2)CC1` [Example 39, 2-[2-/4-(2-Methylbenzyl)-1-piperazinyl/-ethylthio]-4,6-diamino-5-(2-chloro-benzyl)pyrimidine], for which the Ki on 5-HT2C receptor came to 27 nM. In addition, at 5-HT2A receptor [2], the IC50 was found to be 300 nM.
For `Cc1ccc(CN2CCN(CCSc3nc(N)c(Cc4ccccc4Cl)c(N)n3)CC2)cc1` [Example 40, 2-[2-/4-(4-Methylbenzyl)-1-piperazinyl/-ethylthio]-4,6-diamino-5-(2-chlorobenzyl)-pyrimidine], the Ki is greater than 100 nM on 5-HT2C receptor and 21 nM on 5-HT2A receptor [1].
For `Nc1nc(SCCN2CCN(Cc3ccccc3Cl)CC2)nc(N)c1Cc1ccc(Cl)cc1` [Example 47, 2-[2-/4-(2-Chlorobenzyl)-1-piperazinyl/ethylthio]-4,6-diamino-5-(4-chlorobenzyl)-pyrimidine] the same measures were 33 nM and greater than 100 nM.
With `CN(C)c1ccc(Cc2c(N)nc(SCCN3CCN(Cc4ccccc4C#N)CC3)nc2N)cc1` [Example 54, 2-[2-/4-(2-Cyanobenzyl)-1-piperazinyl/-ethylthio]-4,6-diamino-5-(4-dimethylamino-benzyl)pyrimidine], on 5-HT2A receptor [2], the midpoint of inhibition, the IC50, lay at 570 nM.
As to `COc1ccc(CN2CCN(CCSc3nc(N)c(Cc4cc(OC)c(OC)c(OC)c4)c(N)n3)CC2)cc1` [Example 66, 2-[2-/4-(4-Methoxybenzyl)-1-piperazinyl/-ethylthio]-4,6-diamino-5-(3,4,5-trimethoxy-benzyl)pyrimidine], the Ki at 5-HT2C receptor was greater than 100 nM; on 5-HT2A receptor [1] it was 61 nM.
For the molecule `CN(C)c1ccc(Cc2c(N)nc(SCCN3CCN(Cc4ccccc4Cl)CC3)nc2N)cc1` [Example 101, 2-[2-/4-(2-Chlorobenzyl)-1-piperazinyl/-ethylthio]-4,6-diamino-5-(4-dimethylamino-benzyl)pyrimidine], the Ki on 5-HT2C receptor amounted to 24 nM; on 5-HT2A receptor [1] it was 16 nM.
